Experimental data taken from patent EP0341213A2, “5-Aryl-substituted-2,3-dihydro-imidazo [1,2-a]furo[3,2-c]- or thieno[2,3-c]pyridines” (SANDOZ AG, priority 1988, dated 1989).

Tests used:
[1] = system: PAF-mediated extravasation; assay: PAF-induced Extravasation test (test C), measured as a function of hemoconcentration; assay type: in vivo; settings: po
Description: Furthermore, the compounds are indicated for use as inhibitors of PAF-mediated extravasation (the extrusion of plasma from the lumen of the blood vessels into the vessel wall and surrounding tissues) measured as a function of hemoconcentration according to the PAF-induced Extravasation test (test C) as described in WO 88/587. From the values obtained an EDso is generated.

[2] = system: PAF-mediated bronchoconstriction; assay: PAF-induced Pulmonary Inflation Pressure (PIP) Increase test (test B); assay type: in vivo; settings: po
Method: Moreover, in view of their activity as PAF receptor antagonists, the compounds are indicated for use as inhibitors of PAF-mediated bronchoconstriction, which property is evaluated by the PAF-induced Pulmonary Inflation Pressure (PIP) Increase test (test B) as described in WO 88/587, to generate an EDso (dose needed to effect a 50°/o response).

[3] = target: T1, platelet activating factor (PAF) receptor (Homo sapiens, UniProt P25105); assay: Human Platelet PAF Receptor Assay test (test A): inhibition of specific binding of [3H]-PAF to platelets
T1 construct: endogenous in cells; host or cells: human platelets
T1 sequence (P25105 whole entry): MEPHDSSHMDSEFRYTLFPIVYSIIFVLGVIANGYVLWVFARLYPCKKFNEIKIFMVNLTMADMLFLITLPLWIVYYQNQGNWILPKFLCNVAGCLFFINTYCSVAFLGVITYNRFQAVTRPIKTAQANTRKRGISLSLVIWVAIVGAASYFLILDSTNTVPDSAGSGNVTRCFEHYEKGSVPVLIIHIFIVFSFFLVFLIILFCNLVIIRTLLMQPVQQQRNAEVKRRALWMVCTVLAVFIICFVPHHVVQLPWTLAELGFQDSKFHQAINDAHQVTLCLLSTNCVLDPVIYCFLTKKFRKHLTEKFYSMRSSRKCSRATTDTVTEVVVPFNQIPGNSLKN
Description: The compounds of formula I in free base form or in pharmaceutically acceptable acid addition salt form, hereinafter referred to as "the compounds", are indicated for use as platelet activating factor (PAF) receptor antagonists, as indicated by their ability to inhibit specific binding of [^3H)-PAF to platelets according to the Human Platelet PAF Receptor Assay test (test A) as described in WO 88/587.

COc1cc(CCc2ccc(C3=Cc4ccsc4C4=NCCN34)cc2)cc(OC)c1OC [Example 1, 2,3-Dihydro-5-[4-[2-(3,4,5-trimethoxyphenyl)ethyl]phenyl]imidazo[1,2-a]thieno[2,3-c]pyridine]
ED50 [1]: 1 mg/kg | ED50 ([2]; dose needed to effect a 50% response, read-out: EDso): 1 mg/kg | IC50 [3]: 100 nM

COc1cc(CCc2ccc(C3=Cc4oc(C)cc4C4=NCCN34)cc2)cc(OC)c1OC [Example 2, 2,3-Dihydro-8-methyl-5-[4-[2-(3,4,5-trimethoxyphenyl)ethyl]phenyl]imidazo[1,2-a]furo[3,2-c]pyridine]
inhibition at 10 mg/kg ([1]; at 10 mg/kg p.o.): 59% | inhibition at 10 mg/kg ([2]; at 10 mg/kg p.o.): 38% | IC50 [3]: 70 nM
